Source: ChEMBL document CHEMBL5518165, “M335, a novel small-molecule STING agonist activates the immune response and exerts antitumor effects” (Eur J Med Chem, 2024)
Active and inactive are the calls of the source.

Legend:
THP-1 [1] = assay: Upregulation of TBK1 phosphorylation in STING-knockout human THP-1 cells at 20 uM measured for 4 hrs by Western blotting analysis; format: functional, cell-based
[2] = molecular target: Stimulator of interferon genes protein (Homo sapiens) (UniProt Q86WV6); assay: Agonist activity at STING in human THP-1 cells assessed as increase in CXCL10 mRNA level at 20 uM measured for 4 hrs by qPCR analysis; format: cell-based; conditions: filed as agonist
Stimulator of interferon genes protein (Homo sapiens), sequence (Q86WV6 whole entry): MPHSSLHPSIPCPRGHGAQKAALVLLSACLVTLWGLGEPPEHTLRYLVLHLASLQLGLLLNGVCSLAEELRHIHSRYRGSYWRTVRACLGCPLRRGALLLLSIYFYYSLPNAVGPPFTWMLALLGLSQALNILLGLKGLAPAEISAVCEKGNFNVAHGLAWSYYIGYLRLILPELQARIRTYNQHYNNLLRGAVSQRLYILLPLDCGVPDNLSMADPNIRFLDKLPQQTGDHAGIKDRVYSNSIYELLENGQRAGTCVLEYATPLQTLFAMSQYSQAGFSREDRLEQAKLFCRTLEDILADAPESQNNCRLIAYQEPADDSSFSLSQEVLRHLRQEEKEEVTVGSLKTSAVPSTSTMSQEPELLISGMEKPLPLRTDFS

[3] = molecular target: T1, Stimulator of interferon genes protein (Mus musculus) (UniProt Q3TBT3); assay: Agonist activity at STING in MEF cells assessed as STING translocation to golgi apparatus by measuring increase in red fluorescence incubated for 1 hr by laser scanning confocal microscope analysis; format: cell-based; conditions: filed as agonist
T1 sequence (whole entry): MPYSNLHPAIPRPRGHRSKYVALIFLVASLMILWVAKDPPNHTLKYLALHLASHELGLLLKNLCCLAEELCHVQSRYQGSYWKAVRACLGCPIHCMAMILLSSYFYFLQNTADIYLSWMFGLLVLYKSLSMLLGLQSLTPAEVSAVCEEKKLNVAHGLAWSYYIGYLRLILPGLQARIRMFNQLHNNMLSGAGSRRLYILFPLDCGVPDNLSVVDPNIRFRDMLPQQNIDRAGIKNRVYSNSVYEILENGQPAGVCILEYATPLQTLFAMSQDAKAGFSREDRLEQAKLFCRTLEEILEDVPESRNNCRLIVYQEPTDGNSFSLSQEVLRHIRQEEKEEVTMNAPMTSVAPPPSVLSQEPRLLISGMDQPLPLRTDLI

MC-38 [4] = assay: Antitumor activity against mouse MC38 cells allografted in C57/BL6 mouse assessed as increase in CD45+ T cells in spleen at 300 ug, IT administered every 2 days by flow cytometry analysis; format: functional, cell-based; conditions: dose 300.0 µg
CT26 [5] = assay: Antitumor activity against mouse CT26 cells […] mouse assessed as augmentation of CD8+ T cells in spleen at 5 mg/kg, ip administered every 2 days (reference value: 6.99%); format: functional
CT26 [6] = assay: Antitumor activity against mouse CT26 cells […] mouse assessed as augmentation of CD8+ T cells in spleen at 20 mg/kg, ip administered every 2 days (reference value: 6.99%); format: functional; conditions: time 2 day
MC-38 [7] = assay: Antitumor activity against mouse MC38 cells allografted in C57/BL6 mouse assessed as increase in CD8+ T cell numbers in spleen at 300 ug, IT administered every 2 days by immunohistochemical staining based analysis; format: functional; conditions: dose 300.0 µg
[8] = molecular target: T1, Stimulator of interferon genes protein (Mus musculus); assay: Agonist activity at STING in MEF cells assessed as nuclear transposition of phosphorylated IRF3 incubated for 1 hr by laser scanning confocal microscope analysis; format: cell-based; conditions: filed as agonist
[9] = molecular target: Stimulator of interferon genes protein (Homo sapiens) (UniProt Q86WV6); assay: Agonist activity at STING in human THP-1 cells assessed as upregulation of DNA replication related genes by gene ontology analysis; format: cell-based; conditions: filed as agonist
THP-1 [10] = assay: Upregulation of IRF3 phosphorylation in STING-knockout human THP-1 cells at 20 uM measured for 4 hrs by Western blotting analysis; format: functional, cell-based
[11] = molecular target: Stimulator of interferon genes protein (Homo sapiens) (UniProt Q86WV6); assay: Agonist activity at STING in human THP-1 cells at 50 uM; format: cell-based; conditions: filed as agonist
[12] = molecular target: Stimulator of interferon genes protein (Homo sapiens) (UniProt Q86WV6); assay: Agonist activity at STING in human THP-1 cells assessed as upregulation of IFNgamma related genes by GSEA; format: cell-based; conditions: filed as agonist
MC-38 [13] = assay: Antitumor activity against mouse MC38 cells allografted in C57/BL6 mouse assessed as tumor growth inhibition at 300 ug, IT administered every 2 days relative to control; format: functional; conditions: dose 300 µg
[14] = molecular target: Stimulator of interferon genes protein (Homo sapiens) (UniProt Q86WV6); assay: Agonist activity at STING in human THP-1 cells assessed as upregulation of interferon stimulated genes at 20 uM by RNA sequencing analysis; format: cell-based; conditions: filed as agonist
[15] = Toxicity in […] mouse allografted with mouse CT26 cells assessed as change in body weight at 5 to 20 mg/kg, ip administered every 2 days; format: organism-based; conditions: in vivo, 48 h, dose 5-20 mg/kg
MC-38 [16] = assay: Antitumor activity against mouse MC38 cells allografted in C57/BL6 mouse assessed as increase in NK cells in spleen at 300 ug, IT administered every 2 days by flow cytometry analysis (reference value: 3.95%); format: functional; conditions: dose 300 µg, time 2 day
MC-38 [17] = assay: Antitumor activity against mouse MC38 cells allografted in C57/BL6 mouse assessed as increase in CD3+ T cells in tumor tissue at 300 ug, IT administered every 2 days by flow cytometry analysis; format: functional, cell-based; conditions: dose 300.0 µg
THP-1 [18] = assay: Upregulation of IFNB mRNA level in STING-knockout human THP-1 cells at 20 uM measured for 4 hrs by qPCR analysis; format: functional, cell-based
CT26 [19] = assay: Antitumor activity against mouse CT26 cells […] mouse assessed as augmentation of CD3+ T cells in spleen at 5 mg/kg, ip administered every 2 days (reference value: 13.9%); format: functional
CT26 [20] = assay: Antitumor activity against mouse CT26 cells allografted in […] mouse assessed as reduction in tumor development at 300 ug, IT administered every 2 days; format: functional, cell-based; conditions: dose 300.0 µg
[21] = molecular target: Stimulator of interferon genes protein (Homo sapiens) (UniProt Q86WV6); assay: Agonist activity at STING in human THP-1 cells assessed as increase in IRF3 phosphorylation incubated for 4 hrs by Western blotting analysis; format: cell-based; conditions: filed as agonist, dose 5-40 µM
THP1-Dual KO-STING = assay: Upregulation of interferon production in human THP1-Dual KO-STING cells by dual-luciferase reporter assay; format: functional, cell-based
CT26 [22] = assay: Antitumor activity against mouse CT26 cells […] mouse assessed as augmentation of CD8+ T cells in spleen at 10 mg/kg, ip administered every 2 days (reference value: 6.99%); format: functional
[23] = Toxicity in […] mouse allografted with mouse CT26 cells assessed as change in body weight at 300 ug, IT administered every 2 days; format: cell-based; conditions: in vivo, other, 48 h, dose 300 µg
Human alphaherpesvirus 1 [24] = assay: Antiviral activity against HSV-1-GFP infected in mouse MC38 cells assessed as reduction in viral infection by fluorescent microscopy analysis; format: functional, organism-based
[25] = molecular target: T1, Stimulator of interferon genes protein (Mus musculus); assay: Agonist activity at STING in MEF cells assessed as increase in STING oligomerization by Western blotting analysis; format: cell-based; conditions: filed as agonist
Human alphaherpesvirus 1 [26] = assay: Antiviral activity against HSV-1-GFP infected in human THP-1 cells assessed as reduction in proportion of infected cells pre-infected […] for 24 hrs followed by compound addition and measured after 6 hrs by flow cytometry analysis; format: functional, organism-based; conditions: dose 10-30 µM
[27] = molecular target: Stimulator of interferon genes protein (Homo sapiens) (UniProt Q86WV6); assay: Agonist activity at STING in human THP-1 cells assessed as upregulation of IL-6/JAK/STAT3 signaling pathway by GSEA; format: cell-based; conditions: filed as agonist
MC-38 [28] = assay: Antitumor activity against mouse MC38 cells allografted in C57/BL6 mouse assessed as increase in IL-6 level in serum at 300 ug, IT administered every 2 days by ELISA; format: functional, cell-based; conditions: dose 300.0 µg
THP-1 [29] = assay: Upregulation of ISG15 mRNA level in STING-knockout human THP-1 cells at 20 uM measured for 4 hrs by qPCR analysis; format: functional, cell-based
[30] = molecular target: Stimulator of interferon genes protein (Homo sapiens) (UniProt Q86WV6); assay: Agonist activity at STING in human THP-1 cells assessed as upregulation of type-1 interferon signaling pathway by gene ontology analysis; format: cell-based; conditions: filed as agonist

CC(NCCC(c1ccccc1)c1ccccc1)c1ccccc1 (stereo unspecified) [FENDILINE]
20.3%: Activity (CT26 [19])
21%: Activity (CT26 [6])
5.94%: Activity (MC-38 [16])
inactive: Activity (THP-1 [1]) | Activity (THP-1 [10]) | Activity (THP-1 [18]) | Activity (THP1-Dual KO-STING) | Activity (THP-1 [29])
12.7%: Activity (CT26 [5])
82%: TGI (MC-38 [13])
active: Activity [2] | Activity [3] | Activity (MC-38 [4]) | Activity (MC-38 [7]) | Activity [8] | Activity [9] | Activity [11] | Activity [12] | Activity [14] | Activity (MC-38 [17]) | Activity (CT26 [20]) | Activity [21] Dose-Dependent Effect | Activity (Human alphaherpesvirus 1 [24]) | Activity [25] | Activity (Human alphaherpesvirus 1 [26]) Dose-Dependent Effect | Activity [27] | Activity (MC-38 [28]) | Activity [30]
15.1%: Activity (CT26 [22])
Non-Toxic: Activity [15] | Activity [23]
